According to patent US10501479B2, “Benzenesulfonyl-asymmetric ureas and medical uses thereof” (HELSINN HEALTHCARE SA, priority 2016, dated 2019):

How the values were obtained:
Type in all cases: cell-based
[1] = biological target: T1, GHSR-1a (HEK293/GHSR1a cell line) (Homo sapiens, UniProt Q92847); experiment: Ghrelin agonist potency (EC50) with calcium FLIPR assay; conditions: HEK293/GHSR1a, read-out: Activity EC50/EMax: EC50 (ghrelin agonist potency)
T1 construct: expressed in transfected cells; host or cells: HEK293/GHSR1a cell line
T1 sequence (Q92847 whole entry): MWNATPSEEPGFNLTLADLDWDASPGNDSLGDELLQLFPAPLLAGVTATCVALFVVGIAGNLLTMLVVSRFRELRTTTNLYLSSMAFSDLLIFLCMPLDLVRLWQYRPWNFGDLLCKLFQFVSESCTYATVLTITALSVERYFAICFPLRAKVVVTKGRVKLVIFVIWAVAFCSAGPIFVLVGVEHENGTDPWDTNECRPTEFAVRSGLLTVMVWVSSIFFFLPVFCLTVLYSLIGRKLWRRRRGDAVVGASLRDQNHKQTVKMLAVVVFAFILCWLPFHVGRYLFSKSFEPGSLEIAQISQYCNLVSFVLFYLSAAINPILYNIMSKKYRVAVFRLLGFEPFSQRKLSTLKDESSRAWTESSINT
How it was run: (§1)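 Dye preload 30-60 min, RT or 37° C; compound in DMSO. Agonist mode: compound at t=20 sec, Ca2+ read 2 min. Antagonist mode: compound + ghrelin 10 nM at t=20 sec, 2 min read. EC50/IC50 from dose-response curves.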

[2] = biological target: T1, GHSR-1a (HEK293/GHSR1a cell line); experiment: Ghrelin antagonist potency (IC50) with calcium FLIPR assay, ghrelin 10 nM; conditions: HEK293/GHSR1a, ghrelin 10 nM, read-out: Activity IC50 (ghrelin antagonist potency)
How it was run: as §1

[3] = biological target: T2, recombinant human ghrelin receptor (HEK293/GRLN) (Homo sapiens, UniProt Q92847); experiment: Ghrelin inverse agonist potency (EC50) with IP-1 (IP-One HTRF) assay; conditions: IP-1 assay, HEK293/GRLN; read-out: Activity EC50 (ghrelin inverse agonist potency)
T2 construct: expressed in transfected cells
T2 sequence (Q92847 whole entry): as above
How it was run: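 HEK293/GRLN cells were seeded 18-22 hours before the test, then exposed to compound in stimulation buffer for 1 hour at 37° C, 5% CO2. IP-1 was detected by IP-One HTRF (IP1-d2 plus Tb-cryptate, 1 hour RT), reading 620 and 665 nm; the inverse agonist EC50 was derived from this.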

Row | SMILES | EC50 [1] | IC50 [2] | EC50 [3]
1 | CC(=O)N1CC(NC(=O)Nc2ccc(S(=O)(=O)Cc3ccc4c(c3)CN(C)C4)cc2)c2ccccc21 (stereo not drawn) [H1354, 1-(1-acetylindolin-3-yl)-3-(4-(((2-methylisoindolin-5-yl)methyl)sulfonyl)phenyl)urea] | > 30000 nM | 8900 nM | 8610 nM
2 | C[C@@H](NC(=O)Nc1ccc(S(=O)(=O)Cc2ccc3c(c2)CN(C)C3(C)C)cc1)c1ccccc1 [H1357, (R)-1-(1-phenylethyl)-3-(4-(((1,1,2-trimethylisoindolin-5-yl)methyl)sulfonyl)phenyl)urea] | > 30000 nM | 57 nM | 36 nM
3 | CN1Cc2ccc(CS(=O)(=O)c3ccc(NC(=O)NC4CNc5ccccc54)cc3)cc2C1 (stereo not drawn) [H1358, 1-(indolin-3-yl)-3-(4-(((2-methylisoindolin-5-yl)methyl)sulfonyl)phenyl)urea] | > 30000 nM | 1880 nM | 1820 nM
4 | CC(NC(=O)Nc1ccc(S(=O)(=O)Cc2cc3c(cc2F)CN(C)CC3)cc1)c1cccc(Cl)c1Cl (stereo not drawn) [H1366, 1-(1-(2,3-dichlorophenyl)ethyl)-3-(4-(((7-fluoro-2-methyl-1,2,3,4-tetrahydroisoquinolin-6-yl)methyl)sulfonyl)phenyl)urea] | > 30000 nM | 21.5 nM | 2.5 nM
5 | CC(NC(=O)Nc1ccc(S(=O)(=O)Cc2ccc3c(c2F)CCN(C)C3)cc1)c1cccc(Cl)c1Cl (stereo not drawn) [H1367, 1-(1-(2,3-dichlorophenyl)ethyl)-3-(4-(((5-fluoro-2-methyl-1,2,3,4-tetrahydroisoquinolin-6-yl)methyl)sulfonyl)phenyl)urea] | > 30000 nM | 21.2 nM | 3.3 nM
6 | COc1cc2c(cc1CS(=O)(=O)c1ccc(NC(=O)NC(C)c3cccc(Cl)c3Cl)cc1)CCN(C)C2 (stereo not drawn) [H1368, 1-(1-(2,3-dichlorophenyl)ethyl)-3-(4-(((7-methoxy-2-methyl-1,2,3,4-tetrahydroisoquinolin-6-yl)methyl)sulfonyl)phenyl)urea] | > 30000 nM | 20.3 nM | 2.8 nM
7 | COc1c(CS(=O)(=O)c2ccc(NC(=O)NC(C)c3cccc(Cl)c3Cl)cc2)ccc2c1CCN(C)C2 (stereo not drawn) [H1369, 1-(1-(2,3-dichlorophenyl)ethyl)-3-(4-(((5-methoxy-2-methyl-1,2,3,4-tetrahydroisoquinolin-6-yl)methyl)sulfonyl)phenyl)urea] | > 30000 nM | 3.66 nM | 1.1 nM
8 | CC(NC(=O)Nc1ccc(S(=O)(=O)CC2CCC(NCC3CC3)CC2)cc1)c1cccc(Cl)c1Cl (stereo not drawn) [H1371, 1-(4-(((4-((cyclopropylmethyl)amino)cyclohexyl)methyl)sulfonyl)phenyl)-3-(1-(2,3-dichlorophenyl)ethyl)urea] | > 30000 nM | 2440 nM | 231 nM
9 | CCN(CC)C1CCC(CS(=O)(=O)c2ccc(NC(=O)NC(C)c3cccc(Cl)c3Cl)cc2)CC1 (stereo not drawn) [H1372, 1-(1-(2,3-dichlorophenyl)ethyl)-3-(4-(((4-(diethylamino)cyclohexyl)methyl)sulfonyl)phenyl)urea] | > 30000 nM | 18200 nM | 936 nM
10 | CC(NC(=O)Nc1ccc(S(=O)(=O)CC2CCCN(C(C)C)C2)cc1)c1cccc(Cl)c1Cl (stereo not drawn) [H1376, 1-(1-(2,3-dichlorophenyl)ethyl)-3-(4-(((1-isopropylpiperidin-3-yl)methyl)sulfonyl)phenyl)urea] | > 30000 nM | 6890 nM | 631 nM
11 | CC(NC(=O)N(C)c1ccc(S(=O)(=O)Cc2ccc3c(c2)CN(C)C3)cc1)c1ccccc1 (stereo not drawn) [H1377, 1-methyl-1-(4-(((2-methylisoindolin-5-yl)methyl)sulfonyl)phenyl)-3-(1-phenylethyl)urea] | > 30000 nM | 5520 nM | 384 nM
12 | COc1cc2c(cc1CS(=O)(=O)c1ccc(NC(=O)NC(C)c3cccc(Cl)c3Cl)cc1)CCNC2 (stereo not drawn) [H1392, 1-(1-(2,3-dichlorophenyl)ethyl)-3-(4-(((7-methoxy-1,2,3,4-tetrahydroisoquinolin-6-yl)methyl)sulfonyl)phenyl)urea] | > 30000 nM | 98.8 nM | 52.6 nM
13 | CC(NC(=O)Nc1ccc(S(=O)(=O)Cc2cc3c(c(C(F)(F)F)c2)CNCC3)cc1F)c1cccc(Cl)c1Cl (stereo not drawn) [H1400, 1-(1-(2,3-dichlorophenyl)ethyl)-3-(2-fluoro-4-(((8-(trifluoromethyl)-1,2,3,4-tetrahydroisoquinolin-6-yl)methyl)sulfonyl)phenyl)urea] | > 30000 nM | 70.5 nM | 15.4 nM
14 | CC(NC(=O)Nc1ccc(S(=O)(=O)Cc2cc(Cl)c3c(c2)CNC3)cc1)c1ccccc1 (stereo not drawn) [H1405, 1-(4-(((7-chloroisoindolin-5-yl)methyl)sulfonyl)phenyl)-3-(1-phenylethyl)urea] | > 30000 nM | 1860 nM | 90 nM
15 | CC(NC(=O)Nc1ccc(S(=O)(=O)Cc2ccc3c(c2)CNC3)cn1)c1ccccc1 (stereo not drawn) [H1408, 1-(5-((isoindolin-5-ylmethyl)sulfonyl)pyridin-2-yl)-3-(1-phenylethyl)urea] | > 30000 nM | 162 nM | 36 nM
16 | CC(c1ccccc1)N(C)C(=O)Nc1ccc(S(=O)(=O)Cc2ccc3c(c2F)CNC3)cc1 (stereo not drawn) [H1409, 3-(4-(((4-fluoroisoindolin-5-yl)methyl)sulfonyl)phenyl)-1-methyl-1-(1-phenylethyl)urea] | > 30000 nM | 282 nM | 74.5 nM
17 | CC(NC(=O)Nc1ccc(S(=O)(=O)Cc2ccc3c(c2)CNC3)cc1F)c1c(F)cccc1F (stereo not drawn) [H1411, 1-(1-(2,6-difluorophenyl)ethyl)-3-(2-fluoro-4-((isoindolin-5-ylmethyl)sulfonyl)phenyl)urea] | > 30000 nM | 124 nM | 17.8 nM
18 | COc1cc(S(=O)(=O)Cc2ccc3c(c2)CCNC3)ccc1NC(=O)N(C)C(C)c1ccccc1 (stereo not drawn) [H1413, 3-(2-methoxy-4-(((1,2,3,4-tetrahydroisoquinolin-6-yl)methyl)sulfonyl)phenyl)-1-methyl-1-(1-phenylethyl)urea] | > 30000 nM | 681 nM | 225 nM
19 | CC(c1ccccc1)N(C)C(=O)Nc1ccc(S(=O)(=O)Cc2ccc3c(c2)CCNC3)cc1F (stereo not drawn) [H1414, 3-(2-fluoro-4-(((1,2,3,4-tetrahydroisoquinolin-6-yl)methyl)sulfonyl)phenyl)-1-methyl-1-(1-phenylethyl)urea] | > 30000 nM | 2090 nM | 589 nM
20 | CC1Cc2cc(CS(=O)(=O)c3ccc(NC(=O)N(C)Cc4ccccc4)cc3)ccc2CN1 (stereo not drawn) [H1416, 1-benzyl-1-methyl-3-(4-(((3-methyl-1,2,3,4-tetrahydroisoquinolin-6-yl)methyl)sulfonyl)phenyl)urea] | > 30000 nM | 1040 nM | 26.6 nM
21 | CC1c2ccccc2CCN1C(=O)Nc1ccc(S(=O)(=O)Cc2ccc3c(c2)CN(C)C3)cc1 (stereo not drawn) [H1418, 1-methyl-N-(4-(((2-methylisoindolin-5-yl)methyl)sulfonyl)phenyl)-3,4-dihydroisoquinoline-2(1H)-carboxamide] | > 30000 nM | 2700 nM | 69.5 nM
22 | COc1cc(S(=O)(=O)Cc2ccc3c(c2)CCN(C)C3)ccc1NC(=O)N[C@H](C)c1ccc(OC)c(Cl)c1Cl [H1422, (R)-1-(1-(2,3-dichloro-4-methoxyphenyl)ethyl)-3-(2-methoxy-4-(((2-methyl-1,2,3,4-tetrahydroisoquinolin-6-yl)methyl)sulfonyl)phenyl)urea] | > 30000 nM | 29.4 nM | 0.7 nM
23 | COc1ccc([C@@H](C)NC(=O)Nc2ccc(S(=O)(=O)Cc3ccc4c(c3)CCN(C)C4)cc2F)c(Cl)c1Cl [H1423, (R)-1-(1-(2,3-dichloro-4-methoxyphenyl)ethyl)-3-(2-fluoro-4-(((2-methyl-1,2,3,4-tetrahydroisoquinolin-6-yl)methyl)sulfonyl)phenyl)urea] | > 30000 nM | 114 nM | 3.77 nM
24 | COc1cc(S(=O)(=O)Cc2cc(F)c3c(c2)CCNC3)ccc1NC(=O)NC(C)c1cccc(Cl)c1Cl (stereo not drawn) [H1424, 1-(1-(2,3-dichlorophenyl)ethyl)-3-(4-(((8-fluoro-1,2,3,4-tetrahydroisoquinolin-6-yl)methyl)sulfonyl)-2-methoxyphenyl)urea] | > 30000 nM | 15.4 nM | 8.9 nM
25 | CC(NC(=O)Nc1ccc(S(=O)(=O)Cc2ccc(CO)cc2)cc1)c1cccc(Cl)c1Cl (stereo not drawn) [H1430, 1-(1-(2,3-dichlorophenyl)ethyl)-3-(4-((4-(hydroxymethyl)benzyl)sulfonyl)phenyl)urea] | > 30000 nM | 2470 nM | 56.4 nM
26 | COc1cc(S(=O)(=O)Cc2ccc(CO)cc2)ccc1NC(=O)NC(C)c1c(F)cccc1F (stereo not drawn) [H1432, 1-(1-(2,6-difluorophenyl)ethyl)-3-(4-((4-(hydroxymethyl)benzyl)sulfonyl)-2-methoxyphenyl)urea] | > 30000 nM | 5500 nM | 367 nM
27 | COc1cc(S(=O)(=O)Cc2ccc(CO)cc2)ccc1NC(=O)NC(C)c1ccccc1 (stereo not drawn) [H1433, 1-(4-((4-(hydroxymethyl)benzyl)sulfonyl)-2-methoxyphenyl)-3-(1-phenylethyl)urea] | > 30000 nM | 3120 nM | 473 nM
28 | COc1cc(S(=O)(=O)Cc2ccc(CO)cc2)ccc1NC(=O)NC(C)c1cccc(Cl)c1Cl (stereo not drawn) [H1434, 1-(1-(2,3-dichlorophenyl)ethyl)-3-(4-((4-(hydroxymethyl)benzyl)sulfonyl)-2-methoxyphenyl)urea] | > 30000 nM | 857 nM | 61.2 nM
